In ChEMBL document CHEMBL1152225, “Optimization of a series of potent and selective ketone histone deacetylase inhibitors” (Bioorg Med Chem Lett, 2008):
Active and inactive are the calls of the source. The rule behind the calls is not given here.

Columns and labels:
Histone deacetylase 8 = target: T1, Histone deacetylase 8 (Homo sapiens, UniProt Q9BY41); test: Inhibition of HDAC8
T1 sequence (Q9BY41 whole entry): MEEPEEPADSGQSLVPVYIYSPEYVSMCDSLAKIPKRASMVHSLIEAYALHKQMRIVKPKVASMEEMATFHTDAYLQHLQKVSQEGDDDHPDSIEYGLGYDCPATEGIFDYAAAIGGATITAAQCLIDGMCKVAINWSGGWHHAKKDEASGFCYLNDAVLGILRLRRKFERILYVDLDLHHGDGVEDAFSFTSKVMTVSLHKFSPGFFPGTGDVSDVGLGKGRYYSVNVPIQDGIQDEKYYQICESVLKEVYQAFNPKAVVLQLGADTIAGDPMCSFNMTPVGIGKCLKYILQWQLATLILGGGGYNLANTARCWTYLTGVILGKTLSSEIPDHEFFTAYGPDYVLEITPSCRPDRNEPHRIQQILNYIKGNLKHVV

Histone deacetylase 4 = Histone deacetylase 4 (Homo sapiens, UniProt P56524); test: Inhibition of HDAC4
Chain of Histone deacetylase 4 (P56524 whole entry): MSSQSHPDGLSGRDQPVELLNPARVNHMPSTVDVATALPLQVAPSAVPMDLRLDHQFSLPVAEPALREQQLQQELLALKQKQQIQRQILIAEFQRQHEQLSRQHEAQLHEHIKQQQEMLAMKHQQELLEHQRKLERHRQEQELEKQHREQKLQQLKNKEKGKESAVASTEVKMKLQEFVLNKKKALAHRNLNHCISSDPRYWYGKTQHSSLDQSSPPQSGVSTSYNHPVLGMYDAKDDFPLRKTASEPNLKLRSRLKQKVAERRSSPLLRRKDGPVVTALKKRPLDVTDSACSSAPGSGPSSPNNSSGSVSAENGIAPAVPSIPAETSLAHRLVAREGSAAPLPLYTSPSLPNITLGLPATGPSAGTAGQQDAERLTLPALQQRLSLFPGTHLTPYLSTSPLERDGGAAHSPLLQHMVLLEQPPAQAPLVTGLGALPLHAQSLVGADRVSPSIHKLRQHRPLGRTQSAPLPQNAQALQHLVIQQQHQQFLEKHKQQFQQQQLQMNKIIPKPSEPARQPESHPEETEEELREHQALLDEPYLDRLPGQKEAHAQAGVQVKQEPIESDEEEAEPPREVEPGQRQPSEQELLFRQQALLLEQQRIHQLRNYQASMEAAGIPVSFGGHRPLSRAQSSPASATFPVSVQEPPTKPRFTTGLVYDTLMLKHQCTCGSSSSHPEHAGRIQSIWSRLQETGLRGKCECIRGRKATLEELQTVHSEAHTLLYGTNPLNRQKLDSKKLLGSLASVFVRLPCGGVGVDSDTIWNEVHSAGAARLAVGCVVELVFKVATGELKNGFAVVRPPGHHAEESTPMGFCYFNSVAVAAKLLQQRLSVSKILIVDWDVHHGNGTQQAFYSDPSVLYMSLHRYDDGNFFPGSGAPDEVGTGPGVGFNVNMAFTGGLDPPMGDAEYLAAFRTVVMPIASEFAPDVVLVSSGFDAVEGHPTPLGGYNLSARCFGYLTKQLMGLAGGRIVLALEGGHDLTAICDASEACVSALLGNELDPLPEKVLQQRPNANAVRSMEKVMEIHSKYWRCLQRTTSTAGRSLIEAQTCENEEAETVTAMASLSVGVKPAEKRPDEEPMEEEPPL

HCT-116 [1] = test: In vivo antitumor activity against human HCT116 cells; assay type: functional, organism-based
Histone deacetylase 7 = target: T2, Histone deacetylase 7 (Homo sapiens, UniProt Q8WUI4); test: Inhibition of HDAC7
T2 sequence (Q8WUI4 whole entry): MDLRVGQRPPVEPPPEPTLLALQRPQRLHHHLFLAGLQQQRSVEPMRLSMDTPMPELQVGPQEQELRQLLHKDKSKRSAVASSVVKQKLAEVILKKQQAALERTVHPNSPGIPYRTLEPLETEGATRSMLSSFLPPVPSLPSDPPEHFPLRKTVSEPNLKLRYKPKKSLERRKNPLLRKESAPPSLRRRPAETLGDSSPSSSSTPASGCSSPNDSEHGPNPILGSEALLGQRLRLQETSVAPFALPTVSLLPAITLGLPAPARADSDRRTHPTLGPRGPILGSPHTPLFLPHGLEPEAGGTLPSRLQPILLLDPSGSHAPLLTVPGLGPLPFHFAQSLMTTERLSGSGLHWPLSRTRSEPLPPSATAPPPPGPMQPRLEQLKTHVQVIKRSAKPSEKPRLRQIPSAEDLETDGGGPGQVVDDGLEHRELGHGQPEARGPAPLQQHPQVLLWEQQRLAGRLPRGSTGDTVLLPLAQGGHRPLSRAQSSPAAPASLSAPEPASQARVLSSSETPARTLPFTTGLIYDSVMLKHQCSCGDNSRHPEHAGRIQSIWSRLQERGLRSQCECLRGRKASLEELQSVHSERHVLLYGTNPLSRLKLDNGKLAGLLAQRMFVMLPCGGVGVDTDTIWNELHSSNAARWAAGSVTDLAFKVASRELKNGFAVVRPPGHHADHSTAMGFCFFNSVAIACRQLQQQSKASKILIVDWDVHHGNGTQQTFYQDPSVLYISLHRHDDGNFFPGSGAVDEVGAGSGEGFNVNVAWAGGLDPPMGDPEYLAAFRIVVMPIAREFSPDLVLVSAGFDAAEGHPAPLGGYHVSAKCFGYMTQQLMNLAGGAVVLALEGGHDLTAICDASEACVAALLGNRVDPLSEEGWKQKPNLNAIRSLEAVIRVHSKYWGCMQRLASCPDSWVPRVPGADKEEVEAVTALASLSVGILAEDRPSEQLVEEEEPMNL

Histone deacetylase 5 = Histone deacetylase 5 (Homo sapiens, UniProt Q9UQL6); test: Inhibition of HDAC5
Chain of Histone deacetylase 5 (Q9UQL6 whole entry): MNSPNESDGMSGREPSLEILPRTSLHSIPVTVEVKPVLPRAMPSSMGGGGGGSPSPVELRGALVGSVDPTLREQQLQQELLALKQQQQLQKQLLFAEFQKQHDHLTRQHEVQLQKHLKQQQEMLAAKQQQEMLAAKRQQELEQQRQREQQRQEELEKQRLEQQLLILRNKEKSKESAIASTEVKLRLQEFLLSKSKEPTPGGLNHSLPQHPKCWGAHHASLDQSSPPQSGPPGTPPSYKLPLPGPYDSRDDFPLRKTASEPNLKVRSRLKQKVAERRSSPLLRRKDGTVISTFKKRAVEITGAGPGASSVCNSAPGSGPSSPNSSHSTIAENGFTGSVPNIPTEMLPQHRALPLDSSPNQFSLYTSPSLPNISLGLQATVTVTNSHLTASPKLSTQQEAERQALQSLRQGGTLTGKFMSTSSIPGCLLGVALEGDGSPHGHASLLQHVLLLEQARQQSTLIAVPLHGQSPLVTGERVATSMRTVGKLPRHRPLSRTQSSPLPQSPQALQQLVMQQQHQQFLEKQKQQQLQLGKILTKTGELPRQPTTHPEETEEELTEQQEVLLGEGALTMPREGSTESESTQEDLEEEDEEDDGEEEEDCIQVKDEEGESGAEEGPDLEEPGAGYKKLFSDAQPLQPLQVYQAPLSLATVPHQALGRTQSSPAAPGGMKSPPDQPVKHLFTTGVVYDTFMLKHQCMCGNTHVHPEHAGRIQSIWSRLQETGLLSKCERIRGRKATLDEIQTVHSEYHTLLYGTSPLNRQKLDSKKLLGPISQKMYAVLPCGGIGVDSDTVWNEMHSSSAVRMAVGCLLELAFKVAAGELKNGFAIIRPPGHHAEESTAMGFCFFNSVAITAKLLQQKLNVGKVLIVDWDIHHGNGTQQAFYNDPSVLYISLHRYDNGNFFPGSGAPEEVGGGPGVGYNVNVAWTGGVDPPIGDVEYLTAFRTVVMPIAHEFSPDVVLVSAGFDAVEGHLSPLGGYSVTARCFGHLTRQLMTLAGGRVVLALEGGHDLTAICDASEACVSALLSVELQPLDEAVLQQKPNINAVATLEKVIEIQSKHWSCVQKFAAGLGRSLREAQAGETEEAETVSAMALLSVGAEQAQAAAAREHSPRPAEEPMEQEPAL

[2] = Metabolic stability in rat liver microsomes assessed as intrinsic clearance; assay type: ADME, Microsome
Histone deacetylase 1 = Histone deacetylase 1 (Homo sapiens, UniProt Q13547)
Chain of Histone deacetylase 1 (Q13547 whole entry): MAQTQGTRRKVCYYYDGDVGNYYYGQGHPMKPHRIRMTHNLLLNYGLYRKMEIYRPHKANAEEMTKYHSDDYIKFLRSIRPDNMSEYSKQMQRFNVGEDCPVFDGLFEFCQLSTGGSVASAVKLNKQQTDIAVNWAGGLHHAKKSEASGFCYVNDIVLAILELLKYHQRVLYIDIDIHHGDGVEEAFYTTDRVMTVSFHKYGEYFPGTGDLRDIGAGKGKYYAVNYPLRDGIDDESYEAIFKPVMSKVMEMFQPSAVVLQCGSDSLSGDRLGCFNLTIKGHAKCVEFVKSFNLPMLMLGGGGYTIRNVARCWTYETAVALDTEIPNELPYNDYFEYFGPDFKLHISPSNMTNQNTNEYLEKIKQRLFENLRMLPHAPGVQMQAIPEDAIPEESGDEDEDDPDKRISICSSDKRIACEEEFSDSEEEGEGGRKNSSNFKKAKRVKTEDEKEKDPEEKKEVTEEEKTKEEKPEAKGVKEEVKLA
Description: Inhibition of human recombinant C-terminally flag tagged HDAC1

HCT-116 [3] = test: Antiproliferative activity against human HCT116 cells after 72 hrs by celltiter-blue viability assay; assay type: functional, cell-based; conditions: HCT-116, 72 h
[4] = Protein binding in dog plasma; assay type: ADME, cell-free, Canis lupus familiaris; conditions: read-out: PPB (converted)
Histone deacetylase 3 = Histone deacetylase 3 (Homo sapiens, UniProt O15379)
Chain of Histone deacetylase 3 (O15379 whole entry): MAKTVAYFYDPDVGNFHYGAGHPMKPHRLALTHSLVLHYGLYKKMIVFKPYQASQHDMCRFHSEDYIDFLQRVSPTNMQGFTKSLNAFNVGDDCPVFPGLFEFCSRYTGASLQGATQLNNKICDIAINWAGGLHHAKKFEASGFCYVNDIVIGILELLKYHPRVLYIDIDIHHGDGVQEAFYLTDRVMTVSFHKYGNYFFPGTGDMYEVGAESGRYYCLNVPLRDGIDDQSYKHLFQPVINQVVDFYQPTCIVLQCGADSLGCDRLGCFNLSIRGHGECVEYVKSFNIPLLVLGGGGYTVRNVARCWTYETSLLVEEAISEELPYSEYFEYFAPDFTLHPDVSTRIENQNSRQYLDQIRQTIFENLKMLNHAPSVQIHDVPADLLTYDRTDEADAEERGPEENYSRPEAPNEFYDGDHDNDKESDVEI

[5] = Half life in iv dosed rat; assay type: ADME, organism-based; conditions: in vivo
[6] = Metabolic stability in dog liver microsomes assessed as intrinsic clearance; assay type: ADME, Canis lupus familiaris, Microsome
[7] = Protein binding in rat plasma; assay type: ADME, cell-free; conditions: read-out: PPB (converted)
[8] = Volume of distribution at steady state in iv dosed rat; assay type: ADME, organism-based; conditions: in vivo, read-out: Vdss
[9] = Half life in iv dosed dog; assay type: ADME, organism-based, Canis lupus familiaris; conditions: in vivo
[10] = Oral bioavailability in rat; assay type: ADME, organism-based; conditions: in vivo
A549 = test: Antiproliferative activity against human A549 cells after 72 hrs by celltiter-blue viability assay; assay type: functional, cell-based; conditions: A549, 72 h
Liver microsomes = test: Metabolic stability in human liver microsomes assessed as intrinsic clearance; assay type: ADME, Microsome
[11] = target: T3, Protein deacetylase HDAC6 (Homo sapiens, UniProt Q9UBN7)
T3 sequence (Q9UBN7 whole entry): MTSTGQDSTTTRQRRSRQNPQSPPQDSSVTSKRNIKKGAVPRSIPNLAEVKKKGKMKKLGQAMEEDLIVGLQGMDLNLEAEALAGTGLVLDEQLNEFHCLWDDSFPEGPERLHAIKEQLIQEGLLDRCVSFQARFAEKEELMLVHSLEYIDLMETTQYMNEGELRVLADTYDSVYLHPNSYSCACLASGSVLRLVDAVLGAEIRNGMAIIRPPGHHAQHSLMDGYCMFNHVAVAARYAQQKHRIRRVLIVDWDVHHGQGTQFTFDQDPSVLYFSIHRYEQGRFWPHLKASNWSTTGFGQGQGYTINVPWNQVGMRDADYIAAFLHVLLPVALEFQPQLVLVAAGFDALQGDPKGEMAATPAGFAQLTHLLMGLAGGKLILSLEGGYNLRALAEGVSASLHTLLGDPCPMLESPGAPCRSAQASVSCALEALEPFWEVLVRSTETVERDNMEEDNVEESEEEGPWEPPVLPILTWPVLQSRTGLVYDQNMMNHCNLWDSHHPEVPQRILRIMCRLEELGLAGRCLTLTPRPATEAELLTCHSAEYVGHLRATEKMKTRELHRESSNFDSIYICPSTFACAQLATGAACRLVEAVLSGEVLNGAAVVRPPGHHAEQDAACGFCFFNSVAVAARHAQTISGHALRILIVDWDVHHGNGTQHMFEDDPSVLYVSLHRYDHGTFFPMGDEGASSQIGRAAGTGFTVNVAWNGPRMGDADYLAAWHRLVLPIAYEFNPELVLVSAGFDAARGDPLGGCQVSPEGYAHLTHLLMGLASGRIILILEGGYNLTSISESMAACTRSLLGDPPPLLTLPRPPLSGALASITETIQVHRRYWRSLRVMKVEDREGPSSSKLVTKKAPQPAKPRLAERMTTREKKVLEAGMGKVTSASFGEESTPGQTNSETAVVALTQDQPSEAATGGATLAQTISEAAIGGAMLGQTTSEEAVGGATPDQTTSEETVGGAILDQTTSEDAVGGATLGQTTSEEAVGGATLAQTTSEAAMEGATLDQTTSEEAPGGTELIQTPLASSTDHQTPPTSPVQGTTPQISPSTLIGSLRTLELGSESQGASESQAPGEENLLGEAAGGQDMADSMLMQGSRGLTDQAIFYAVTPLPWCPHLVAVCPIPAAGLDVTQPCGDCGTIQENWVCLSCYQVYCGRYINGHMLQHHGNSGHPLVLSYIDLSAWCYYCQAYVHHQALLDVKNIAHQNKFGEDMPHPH

[12] = Oral bioavailability dog; assay type: ADME, organism-based, Canis lupus familiaris; conditions: in vivo
[13] = Protein binding in human plasma; assay type: ADME, cell-free; conditions: read-out: PPB (converted)
HeLa = test: Antiproliferative activity against human HeLa cells after 72 hrs by celltiter-blue viability assay; assay type: functional, cell-based
Histone deacetylase 2 = Histone deacetylase 2 (Homo sapiens, UniProt Q92769)
Chain of Histone deacetylase 2 (Q92769 whole entry): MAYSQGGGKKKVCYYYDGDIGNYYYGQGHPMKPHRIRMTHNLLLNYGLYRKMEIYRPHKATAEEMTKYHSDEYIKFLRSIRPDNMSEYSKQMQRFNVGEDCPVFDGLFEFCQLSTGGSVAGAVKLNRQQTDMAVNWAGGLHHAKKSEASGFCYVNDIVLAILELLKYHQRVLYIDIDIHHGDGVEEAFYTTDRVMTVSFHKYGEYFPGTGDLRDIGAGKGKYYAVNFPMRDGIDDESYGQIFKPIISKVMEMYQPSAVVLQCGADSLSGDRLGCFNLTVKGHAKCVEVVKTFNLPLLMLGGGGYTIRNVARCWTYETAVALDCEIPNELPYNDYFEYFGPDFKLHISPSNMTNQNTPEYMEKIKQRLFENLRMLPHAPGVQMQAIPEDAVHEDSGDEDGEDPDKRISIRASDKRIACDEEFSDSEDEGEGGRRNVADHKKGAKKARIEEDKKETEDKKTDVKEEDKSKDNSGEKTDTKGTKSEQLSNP

[14] = Clearance in iv dosed dog; assay type: ADME, organism-based, Canis lupus familiaris; conditions: in vivo
[15] = Clearance in iv dosed rat; assay type: ADME, organism-based; conditions: in vivo
[16] = Volume of distribution at steady state in iv dosed dog; assay type: ADME, organism-based, Canis lupus familiaris; conditions: in vivo, read-out: Vdss

COc1ccc2[nH]c(C)c(CC(=O)N[C@@H](CCCCCC(C)=O)c3ncc(-c4ccccc4)[nH]3)c2c1
IC50 (Histone deacetylase 8): > 1000 nM
IC50 (Histone deacetylase 4): > 1000 nM
Activity (HCT-116 [1]): Active
IC50 (Histone deacetylase 7): > 1000 nM
IC50 (Histone deacetylase 5): > 1000 nM
microsomal CLint [2]: > 300 µL/min/mg

CC(=O)CCCCC[C@H](NC(=O)C1CCN(C)CC1)c1ncc(-c2ccc3ccccc3c2)[nH]1
IC50 (Histone deacetylase 8): > 1000 nM
IC50 (Histone deacetylase 1): 11 nM
IC50 (HCT-116 [3]): 590 nM
IC50 (Histone deacetylase 4): > 1000 nM
fraction unbound [4]: 0.04
IC50 (Histone deacetylase 3): 17 nM
half-life [5]: 2.4 h
CL [6]: 10 µL/min/mg
fraction unbound [7]: 0.11
Vd [8]: 6.9 L/kg
half-life [9]: 11.8 h
IC50 (Histone deacetylase 7): > 1000 nM
bioavailability [10]: 0%
IC50 (Histone deacetylase 5): > 1000 nM
IC50 (A549): 720 nM
CL (Liver microsomes): 12 µL/min/mg
IC50 [11]: 10 nM
bioavailability [12]: 28%
fraction unbound [13]: 0.04
microsomal CLint [2]: 194 µL/min/mg
IC50 (HeLa): 300 nM
IC50 (Histone deacetylase 2): 29 nM
clearance [14]: 7 mL/min/kg
clearance [15]: 133 mL/min/kg
Vd [16]: 5.2 L/kg
